Patent US20170007615A1, “Antibacterial Compounds” (priority 2014, published 2017)
In brackets after ≈: the same amount, converted by molar mass.

How the values were obtained:
E. faecalis (ATCC 29212) = experiment: Antibacterial activity (MIC), Gram-positive type strain; type: cell-based, Enteroccocus faecalis; settings: Table 13; for MIC: Enterococcus faecalis, ATCC29212
E. coli (ATCC 25922) [1] = experiment: microbe, parasite or virus in culture; settings: Escherichia coli, ATCC25922, read-out: MIC Compound alone, Table 1
E. coli (ATCC 25922) [2] = settings: Table 1; (b) No effect
[3] = system: N. gonorrheae (ATCC 49226); experiment: Antibacterial activity (MIC), Gram-negative type strain; type: cell-based, Neisseria gonorrhoeae; settings: Table 13; for MIC: Neisseria gonorrhoeae, ATCC49226
S. aureus (ATCC 29213) = experiment: Antibacterial activity (MIC), Gram-positive type strain; type: cell-based, Staphylococcus aureus; settings: Table 13; for MIC: Staphylococcus aureus, ATCC29213
[4] = system: H. influenzae (ATCC 49247); experiment: Antibacterial activity (MIC), Gram-negative type strain; type: cell-based, Haemophilus influenzae; settings: Table 13; for MIC: Haemophilus influenzae, ATCC49247

| Molecule | MIC (E. faecalis (ATCC 29212)) [µg/mL] | MIC (E. coli (ATCC 25922) [1]) [µg/mL] | MIC of Compound (μg/ml) in the presence of PMBN (128 μg/ml) (E. coli (ATCC 25922) [2]) [µg/mL] | MIC [3] [µg/mL] | MIC (S. aureus (ATCC 29213)) [µg/mL] | MIC [4] [µg/mL] | MIC vs. E. faecalis (ATCC 29212) (E. faecalis (ATCC 29212)) | MIC vs. N. gonorrheae (ATCC 49226) [3] | MIC vs. S. aureus (ATCC 29213) (S. aureus (ATCC 29213)) [µg/mL] | MIC vs. H. influenzae (ATCC 49247) [4] [µg/mL] |
| --- | --- | --- | --- | --- | --- | --- | --- | --- | --- | --- |
| CCCS(=O)(=O)Nc1ncc(-c2cc(-c3ccc(C)cn3)c3sc(NC(=O)NCC)nc3c2)cn1 [Compound A-12, 1-Ethyl-3-[7-(5-methyl-2-pyridyl)-5-[2-(propylsulfonylamino)pyrimidin-5-yl]-1,3-benzothiazol-2-yl]urea] | ≤ 0.008 | 2 (≈ 3.91 µM) | 0.008 | ≤ 0.008 | ≤ 0.002 | 0.015 (≈ 0.0293 µM) |  |  |  |  |
| CCNC(=O)Nc1nc2cc(-c3cnc(NS(=O)(=O)N4CCCC4)nc3)cc(-c3ccc(C)cn3)c2s1 [Compound A-11, 1-Ethyl-3-[7-(5-methyl-2-pyridyl)-5-[2-(pyrrolidin-1-ylsulfonylamino)pyrimidin-5-yl]-1,3-benzothiazol-2-yl]urea] | ≤ 0.008 | 2 (≈ 3.71 µM) | 0.015 | 0.015 (≈ 0.0278 µM) | 0.004 (≈ 0.00743 µM) | 0.06 (≈ 0.111 µM) |  |  |  |  |
| CCNC(=O)Nc1nc2cc(-c3cnc(NS(=O)(=O)C4CCNC4)nc3)cc(-c3ccc(C)cn3)c2s1 (centres unmarked) [Compound A-53, N-(5-(2-(3-ethylureido)-7-(5-methylpyridin-2-yl)benzo[d]thiazol-5-yl)pyrimidin-2-yl)pyrrolidine-3-sulfonamide] | 0.5 (≈ 0.928 µM) |  |  | 2 (≈ 3.71 µM) | > 64 | > 64 |  |  |  |  |
| N-(5-(2-(3-ethylureido)-7-(pyridin-2-yl)benzo[d]thiazol-5-yl)pyrimidin-2-yl)morpholine-4-sulfonamide [Compound A-43] |  |  |  |  |  |  | <=0.008 μg/ml | <=0.008 μg/ml | 0.12 | 0.03 |
| CCNC(=O)Nc1nc2cc(-c3cnc(NS(C)(=O)=O)nc3)cc(-c3ccccn3)c2s1 [Compound A-31, N-(5-(2-(3-ethylureido)-7-(pyridin-2-yl)benzo[d]thiazol-5-yl)pyrimidin-2-yl)methanesulfonamide] | 0.03 (≈ 0.0639 µM) |  |  | 0.03 (≈ 0.0639 µM) | 2 (≈ 4.26 µM) | 0.015 (≈ 0.0319 µM) |  |  |  |  |
| CCNC(=O)Nc1nc2cc(-c3cnc(NS(=O)(=O)N4CC[C@@H](O)C4)nc3)cc(-c3ccc(C)cn3)c2s1 [Compound A-59, (R)—N-(5-(2-(3-ethylureido)-7-(5-methylpyridin-2-yl)benzo[d]thiazol-5-yl)pyrimidin-2-yl)-3-hydroxypyrrolidine-1-sulfonamide] | 0.015 (≈ 0.027 µM) |  |  | 0.015 (≈ 0.027 µM) | 0.12 (≈ 0.216 µM) | 0.03 (≈ 0.0541 µM) |  |  |  |  |
| CCNC(=O)Nc1nc2cc(-c3cnc(NS(=O)(=O)C(C)(C)C)nc3)c(F)cc2s1 [Compound A-61, N-(5-(2-(3-ethylureido)-6-fluorobenzo[d]thiazol-5-yl)pyrimidin-2-yl)-2-methylpropane-2-sulfonamide] | 0.06 (≈ 0.133 µM) |  |  | 0.25 (≈ 0.552 µM) | 0.06 (≈ 0.133 µM) | 0.12 (≈ 0.265 µM) |  |  |  |  |
| CCNC(=O)Nc1nc2cc(-c3cnc(NS(=O)(=O)NC)nc3)cc(-c3ccc(C)cn3)c2s1 [Compound A-42, 1-ethyl-3-[7-(5-methyl-2-pyridyl)-5-[2-(methylsulfamoylamino)pyrimidin-5-yl]-1,3-benzothiazol-2-yl]urea] | ≤ 0.008 |  |  | ≤ 0.008 | 0.06 (≈ 0.12 µM) | 0.03 (≈ 0.0602 µM) |  |  |  |  |
| CCNC(=O)Nc1nc2cc(-c3cnc(NS(=O)(=O)N4CC[C@@H](N5CCOCC5)C4)nc3)cc(-c3ccc(C)cn3)c2s1 [Compound A-56, (R)—N-(5-(2-(3-ethylureido)-7-(5-methylpyridin-2-yl)benzo[d]thiazol-5-yl)pyrimidin-2-yl)-3-morpholinopyrrolidine-1-sulfonamide] | 0.015 (≈ 0.024 µM) |  |  | 0.06 (≈ 0.0962 µM) | 0.06 (≈ 0.0962 µM) | 0.12 (≈ 0.192 µM) |  |  |  |  |
| CCNC(=O)Nc1nc2cc(-c3cnc(NS(=O)(=O)CCN4CCOCC4)nc3)cc(-c3ccc(C)cn3)c2s1 [Compound A-52, N-(5-(2-(3-ethylureido)-7-(5-methylpyridin-2-yl)benzo[d]thiazol-5-yl)pyrimidin-2-yl)-2-morpholinoethanesulfonamide] | 0.12 (≈ 0.206 µM) |  |  | 0.03 (≈ 0.0515 µM) | 0.5 (≈ 0.858 µM) | 0.12 (≈ 0.206 µM) |  |  |  |  |
| CCNC(=O)Nc1nc2cc(-c3cnc(NS(=O)(=O)C4CC4)nc3)cc(-c3ccc(C)cn3)c2s1 [Compound A-40, N-(5-(2-(3-ethylureido)-7-(5-methylpyridin-2-yl)benzo[d]thiazol-5-yl)pyrimidin-2-yl)cyclopropanesulfonamide] | ≤ 0.008 |  |  | ≤ 0.008 | 0.015 (≈ 0.0294 µM) | 0.015 (≈ 0.0294 µM) |  |  |  |  |
| CCNC(=O)Nc1nc2cc(-c3cnc(NS(=O)(=O)N4CC(OC)C4)nc3)cc(-c3ccccn3)c2s1 [Compound A-49, N-(5-(2-(3-ethylureido)-7-(pyridin-2-yl)benzo[d]thiazol-5-yl)pyrimidin-2-yl)-3-methoxyazetidine-1-sulfonamide] | 0.25 (≈ 0.462 µM) |  |  | 0.25 (≈ 0.462 µM) | 1 (≈ 1.85 µM) | 2 (≈ 3.7 µM) |  |  |  |  |
| CCNC(=O)Nc1nc2cc(-c3cnc(NS(=O)(=O)N(C)CCO)nc3)cc(-c3ccc(C)cn3)c2s1 [Compound A-15, 1-Ethyl-3-[5-[2-[[2-hydroxyethyl(methyl)sulfamoyl]amino]pyrimidin-5-yl]-7-(5-methyl-2-pyridyl)-1,3-benzothiazol-2-yl]urea] | 0.015 (≈ 0.0276 µM) | 4 (≈ 7.37 µM) | 0.03 | ≤ 0.008 | 0.12 (≈ 0.221 µM) | 0.03 (≈ 0.0553 µM) |  |  |  |  |
| CCNC(=O)Nc1nc2cc(-c3cnc(NS(=O)(=O)N(C)C)nc3)cc(-c3ccccn3)c2s1 [Compound A-32, 1-[5-[2-(dimethylsulfamoylamino)pyrimidin-5-yl]-7-(2-pyridyl)-1,3-benzothiazol-2-yl]-3-ethyl urea] | 0.015 (≈ 0.0301 µM) |  |  | 0.03 (≈ 0.0602 µM) | 0.12 (≈ 0.241 µM) | 0.015 (≈ 0.0301 µM) |  |  |  |  |
| CCNC(=O)Nc1nc2cc(-c3cnc(N4CCCCS4(=O)=O)nc3)cc(-c3ccccn3)c2s1 [Compound A-24, 1-(5-(2-(1,1-dioxido-1,2-thiazinan-2-yl)pyrimidin-5-yl)-7-(pyridin-2-yl)benzo[d]thiazol-2-yl)-3-ethyl-urea] | 0.03 (≈ 0.0589 µM) |  |  | 0.12 (≈ 0.235 µM) | 0.06 (≈ 0.118 µM) | 0.5 (≈ 0.981 µM) |  |  |  |  |
| CCNC(=O)Nc1nc2cc(-c3cnc(NS(C)(=O)=O)nc3)cc(-c3ccc(C)cn3)c2s1 [Compound A-30, N-(5-(2-(3-ethylureido)-7-(5-methylpyridin-2-yl)benzo[d]thiazol-5-yl)pyrimidin-2-yl)methanesulfonamide] | ≤ 0.008 |  |  | ≤ 0.008 | 0.06 (≈ 0.124 µM) | 0.008 (≈ 0.0165 µM) |  |  |  |  |
| CCNC(=O)Nc1nc2cc(-c3ccc(N4CCCS4(=O)=O)nc3)cc(-c3ccccn3)c2s1 [Compound A-25, 1-[5-[6-(1,1-dioxo-1,2-thiazolidin-2-yl)-3-pyridyl]-7-(2-pyridyl)-1,3-benzothiazol-2-yl]-3-ethylurea] | 0.06 (≈ 0.121 µM) |  |  | 0.5 (≈ 1.01 µM) | 0.06 (≈ 0.121 µM) | 1 (≈ 2.02 µM) |  |  |  |  |
| CCNC(=O)Nc1nc2cc(-c3cnc(NS(=O)(=O)NCC)nc3)cc(-c3ccccn3)c2s1 [Compound A-37, 1-ethyl-3-[5-[2-(ethylsulfamoylamino)pyrimidin-5-yl]-7-(2-pyridyl)-1,3-benzothiazol-2-yl]urea] | 0.015 (≈ 0.0301 µM) |  |  | 0.03 (≈ 0.0602 µM) | 0.25 (≈ 0.501 µM) | 0.12 (≈ 0.241 µM) |  |  |  |  |
| CCNC(=O)Nc1nc2cc(-c3cnc(NS(=O)(=O)c4ccccc4)nc3)cc(-c3ccc(C)cn3)c2s1 [Compound A-51, N-(5-(2-(3-ethylureido)-7-(5-methylpyridin-2-yl)benzo[d]thiazol-5-yl)pyrimidin-2-yl)benzenesulfonamide] | 0.008 (≈ 0.0147 µM) |  |  | ≤ 0.008 | 0.015 (≈ 0.0275 µM) | 0.015 (≈ 0.0275 µM) |  |  |  |  |
| CCNC(=O)Nc1nc2cc(-c3cnc(N4CCCS4(=O)=O)nc3)cc(-c3ccc(C)cn3)c2s1 [Compound A-28, 1-(5-(2-(1,1-dioxidoisothiazolidin-2-yl)pyrimidin-5-yl)-7-(5-methylpyridin-2-yl)benzo[d]thiazol-2-yl)-3-ethylurea] | 0.015 (≈ 0.0294 µM) |  |  | 0.03 (≈ 0.0589 µM) | 0.03 (≈ 0.0589 µM) | 0.12 (≈ 0.235 µM) |  |  |  |  |
| CCNC(=O)Nc1nc2cc(-c3cnc(NS(=O)(=O)N4CCOCC4)nc3)cc(-c3ccc(C)cn3)c2s1 [Compound A-44, N-(5-(2-(3-ethylureido)-7-(5-methylpyridin-2-yl)benzo[d]thiazol-5-yl)pyrimidin-2-yl)morpholine-4-sulfonamide] | ≤ 0.008 |  |  | ≤ 0.008 | 0.03 (≈ 0.0541 µM) | 0.03 (≈ 0.0541 µM) |  |  |  |  |
| CCNC(=O)Nc1nc2cc(-c3cnc(NS(=O)(=O)C(C)(C)CO)nc3)cc(-c3ccc(C)cn3)c2s1 [Compound A-14, 1-Ethyl-3-[5-[2-[(2-hydroxy-1,1-dimethyl-ethyl)sulfonylamino]pyrimidin-5-yl]-7-(5-methyl-2-pyridyl)-1,3-benzothiazol-2-yl]urea] | ≤ 0.008 | 4 (≈ 7.38 µM) | 0.03 | 0.015 (≈ 0.0277 µM) | 0.03 (≈ 0.0554 µM) | 0.015 (≈ 0.0277 µM) |  |  |  |  |
| CCNC(=O)Nc1nc2cc(-c3cnc(NS(=O)(=O)N(C)C)nc3)cc(-c3ccc(C)cn3)c2s1 [Compound A-38, 1-[5-[2-(dimethylsulfamoylamino)pyrimidin-5-yl]-7-(5-methyl-2-pyridyl)-1,3-benzothiazol-2-yl]-3-ethyl urea] | ≤ 0.008 |  |  | ≤ 0.008 | 0.015 (≈ 0.0293 µM) | 0.03 (≈ 0.0585 µM) |  |  |  |  |
| CCNC(=O)Nc1nc2cc(-c3cnc(NS(=O)(=O)NC)nc3)cc(-c3ccccn3)c2s1 [Compound A-41, 1-ethyl-3-[5-[2-(methylsulfamoylamino)pyrimidin-5-yl]-7-(2-pyridyl)-1,3-benzothiazol-2-yl]urea] | ≤ 0.008 |  |  | 0.015 (≈ 0.031 µM) | 0.5 (≈ 1.03 µM) | 0.06 (≈ 0.124 µM) |  |  |  |  |
